# System: Saccharomyces cerevisiae strains (wt, ARX3, AR29 pdr5Δ, pdr5Δ)
# Assay: agar-plate dilution assay (spot assay) with lovastatin, PDR5 complementation (FIG. 4)
# Conditions: lowest tested concentration (0.74 mM) of activated lovastatin, 30° C., 3 days
# Protocol: The constructed strains response to different lovastatin levels present in the growth medium were tested using a agar-plate dilution assay (also known as a spot assay). Overnight cultures of the four Saccharomyces cerevisiae strains (wt, ARX3, AR29 pdr5Δ, pdr5Δ,) were diluted to OD600 of 0.2 and a fivefold dilution series for each strain was made. […] The growth of the individual strain as a function of time was recorded by photography.
row,SMILES,growth of pdr5Δ strain
1,CC[C@H](C)C(=O)O[C@H]1C[C@@H](C)C=C2C=C[C@H](C)[C@H](CC[C@@H]3C[C@@H](O)CC(=O)O3)[C@H]21 [lovastatin],lack of growth

# System: Saccharomyces cerevisiae WT and ARX3 strain harbouring the putative efflux pump MlcE
# Assay: serial dilution plating of WT and ARX3 on YPD agar plates containing different cytotoxic compounds (FIG. 3)
# Format: cell-based
# Conditions: compound in YPD agar, tenfold dilution series, 30° C., 2 days; compactin, lovastatin, simvastatin in active form
# Protocol: Investigation of the potential of MlcE to confer the resistance to statins in yeast. Tenfold dilution series of Saccharomyces cerevisiae WT and ARX3 strain harbouring the putative efflux pump MlcE, starting with an OD600 of 0.02 were prepared from overnight cultures.
# Moreover, to determine if the putative efflux pump MlcE has the ability to export statins across the plasma membrane the inventors of the present application also tested whether MlcE confers resistance to statins in yeast. […] The resulting yeast strain ARX3 was tested for susceptibility to compactin by serial dilution plating of both wild type (WT) and ARX3 strains on YPD agar plates supplemented with the active form of compactin (FIG. 3).
row,SMILES,resistance of MlcE-expressing strain ARX3 compared to the wild type strain
1,CC(C)c1c(C(=O)Nc2ccccc2)c(-c2ccccc2)c(-c2ccc(F)cc2)n1CC[C@@H](O)C[C@@H](O)CC(=O)O [atorvastatin],does not show an increased resistance
2,CC[C@H](C)C(=O)O[C@H]1CCC=C2C=C[C@H](C)[C@H](CC[C@@H]3C[C@@H](O)CC(=O)O3)[C@H]21 [compactin],increased resistance
3,CC[C@H](C)C(=O)O[C@H]1C[C@@H](C)C=C2C=C[C@H](C)[C@H](CC[C@@H]3C[C@@H](O)CC(=O)O3)[C@H]21 [lovastatin],increased resistance
4,COc1c(C)c2c(c(O)c1C/C=C(\C)CCC(=O)O)C(=O)OC2 [mycophenolic acid],does not show an increased resistance
5,COc1cc(C=O)ccc1O [vanillin],does not show an increased resistance

# From patent publication US20170088589A1, “STATIN RESISTANCE AND EXPORT” (DANMARKS TEKNISKE UNIVERSITET, priority 2014, published 2017)
